# Test results: ChEMBL document CHEMBL4619717, “Novel quinolin-4(1H)-one derivatives as multi-effective aldose reductase inhibitors for treatment of diabetic complications: Synthesis, biological evaluation, and molecular modeling studies” (Bioorg Med Chem Lett, 2020)
# What was measured:
# [1] = target: Aldo-keto reductase family 1 member B1 (Rattus norvegicus, UniProt P07943); experiment: Inhibition of AKR1B1 in rat lenses
# [2] = Antioxidant activity assessed as DPPH radical scavenging activity at 100 uM relative to control; assay type: functional
# [3] = target: T1, AKR1A1 (aldo-keto reductase family 1 member A1) (Rattus norvegicus, UniProt P51635); experiment: Inhibition of AKR1A1 in rat kidney at 10 uM relative to control
# T1 sequence (P51635 whole entry): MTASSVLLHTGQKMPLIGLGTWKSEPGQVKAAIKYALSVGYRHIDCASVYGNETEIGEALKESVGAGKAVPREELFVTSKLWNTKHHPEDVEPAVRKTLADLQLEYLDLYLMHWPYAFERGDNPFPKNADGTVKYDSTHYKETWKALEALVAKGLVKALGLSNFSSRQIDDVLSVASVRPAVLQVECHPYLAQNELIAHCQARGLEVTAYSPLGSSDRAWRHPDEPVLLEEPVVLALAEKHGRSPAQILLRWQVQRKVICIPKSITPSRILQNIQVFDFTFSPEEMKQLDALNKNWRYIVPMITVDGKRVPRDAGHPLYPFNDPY
# [4] = Antioxidant activity assessed as DPPH radical scavenging activity at 10 uM relative to control; assay type: functional
# [5] = Antioxidant activity assessed as DPPH radical scavenging activity at 50 uM relative to control; assay type: functional
# [6] = n-octanol/aqueous buffer distribution coefficient, logD of compound at pH 7.4 by shake flask assay based HPLC-MS analysis; assay type: physicochemical
smiles,measurement,setting,value
COc1cc(Cn2cc(C(=O)O)c(=O)c3ccccc32)cc(OC)c1,IC50,[1],9870 nM
same,Activity,[2],47.6%
same,inhibition at 10 µM,[3],30.1%
O=C(O)c1cn(Cc2cc(O)cc(O)c2)c2ccccc2c1=O,IC50,[1],57 nM
same,Activity,[4],51.7%
same,Activity,[2],92.4%
same,Activity,[5],71.1%
same,logD,[6],0.57
same,inhibition at 10 µM,[3],36.6%
CS(=O)(=O)NC(=O)c1cn(Cc2cc(O)cc(O)c2)c2ccccc2c1=O,IC50,[1],112 nM
same,Activity,[4],33.6%
same,Activity,[2],79.4%
same,Activity,[5],64.7%
same,inhibition at 10 µM,[3],24.7%
O=C(O)c1cn(Cc2ccc(F)cc2)c2ccccc2c1=O,IC50,[1],154 nM
same,Activity,[2],21.4%
same,inhibition at 10 µM,[3],30.2%
O=C(NO)c1cn(Cc2ccc(F)cc2)c2ccccc2c1=O,IC50,[1],237 nM
same,Activity,[2],32.1%
same,inhibition at 10 µM,[3],24.1%
O=C(O)c1cn(Cc2ccc(Br)cc2)c2ccccc2c1=O,IC50,[1],1530 nM
same,Activity,[2],25.4%
same,inhibition at 10 µM,[3],20.1%
O=C(O)c1cn(Cc2ccc(O)cc2)c2ccccc2c1=O,IC50,[1],98 nM
same,Activity,[4],14.6%
same,Activity,[2],62.7%
same,Activity,[5],30.4%
same,inhibition at 10 µM,[3],37.5%
CONC(=O)c1cn(Cc2cc(O)cc(O)c2)c2ccccc2c1=O,IC50,[1],689 nM
same,Activity,[4],42.7%
same,Activity,[2],88.7%
same,Activity,[5],55.8%
same,logD,[6],0.73
same,inhibition at 10 µM,[3],21.7%
COc1cc(Cn2cc(C(=O)NO)c(=O)c3ccccc32)cc(OC)c1,IC50,[1],15600 nM
same,Activity,[2],41.3%
same,inhibition at 10 µM,[3],17.2%
COc1ccc(Cn2cc(C(=O)NO)c(=O)c3ccccc32)cc1,IC50,[1],12500 nM
same,Activity,[2],34.1%
same,inhibition at 10 µM,[3],7.6%
O=C(NO)c1cn(Cc2ccc(O)c(O)c2)c2ccccc2c1=O,IC50,[1],287 nM
same,Activity,[4],51.1%
same,Activity,[2],88.1%
same,Activity,[5],65.1%
same,inhibition at 10 µM,[3],25.4%
O=C(NO)c1cn(Cc2cc(O)cc(O)c2)c2ccccc2c1=O,IC50,[1],65 nM
same,Activity,[4],57.8%
same,Activity,[2],91%
same,Activity,[5],72.4%
same,logD,[6],1.32
same,inhibition at 10 µM,[3],27.4%
O=C(NO)c1cn(Cc2ccc(O)cc2)c2ccccc2c1=O,IC50,[1],107 nM
same,Activity,[4],32.3%
same,Activity,[2],74.9%
same,Activity,[5],51.1%
same,inhibition at 10 µM,[3],34.6%
CS(=O)(=O)NC(=O)c1cn(Cc2ccccc2)c2ccccc2c1=O,IC50,[1],15000 nM
same,Activity,[2],28.7%
same,logD,[6],0.53
same,inhibition at 10 µM,[3],7.9%
O=C(NO)c1cn(Cc2ccccc2)c2ccccc2c1=O,IC50,[1],12600 nM
same,Activity,[2],27.1%
same,logD,[6],1.53
same,inhibition at 10 µM,[3],7.1%
Cc1c(C)c2c(c(C)c1O)CCC(C)(C(=O)O)O2 (stereo not drawn),Activity,[4],77.2%
same,Activity,[2],94.2%
same,Activity,[5],84.1%
O=C(NO)c1cn(Cc2ccc(Br)cc2)c2ccccc2c1=O,IC50,[1],2490 nM
same,Activity,[2],27.6%
same,inhibition at 10 µM,[3],17.6%
CC(/C=C1\SC(=S)N(CC(=O)O)C1=O)=C\c1ccccc1,inhibition at 10 µM,[3],43.1%
COc1ccc(Cn2cc(C(=O)O)c(=O)c3ccccc32)cc1,IC50,[1],12000 nM
same,Activity,[2],30.5%
O=C(O)c1cn(Cc2ccc(O)c(O)c2)c2ccccc2c1=O,IC50,[1],251 nM
same,Activity,[4],44.9%
same,Activity,[2],87.1%
same,Activity,[5],61.9%
same,inhibition at 10 µM,[3],38.6%
COc1ccc(Cn2cc(C(=O)NO)c(=O)c3ccccc32)cc1OC,IC50,[1],13600 nM
same,Activity,[2],39.1%
same,inhibition at 10 µM,[3],10.5%
O=C(O)c1cn(Cc2ccccc2)c2ccccc2c1=O,IC50,[1],11000 nM
same,Activity,[2],20.3%
same,logD,[6],0.82
same,inhibition at 10 µM,[3],5.8%
CONC(=O)c1cn(Cc2ccccc2)c2ccccc2c1=O,IC50,[1],12800 nM
same,Activity,[2],25.2%
same,logD,[6],1.19
same,inhibition at 10 µM,[3],5.1%
O=C(NO)c1cn(Cc2ccc(Cl)cc2)c2ccccc2c1=O,IC50,[1],626 nM
same,Activity,[2],31.7%
same,inhibition at 10 µM,[3],26.5%
COc1ccc(Cn2cc(C(=O)O)c(=O)c3ccccc32)cc1OC,IC50,[1],10600 nM
same,Activity,[2],32.2%
same,inhibition at 10 µM,[3],24.8%
O=C(O)c1cn(Cc2ccc(Cl)cc2)c2ccccc2c1=O,IC50,[1],321 nM
same,Activity,[2],28.7%
same,inhibition at 10 µM,[3],18.3%
